Measurements published in US12686673B2 (Blueprint Medicines Corporation, priority 2020, dated 2026).
Structures can show the parent of a compound that is named as a salt. Where two headings read alike, the source gives them in different places.

Columns and labels:
Format in all cases: cell-based
[1] = test system: A431 cells; assay: Cellular proliferation (Alamar Blue) assay, A431
Description: (§1) • 1. EGFR(D770_N771insSVD) expressing Ba/F3 stable cell line • 2. EGFR (A767_dupASV) expressing Ba/F3 stable cell line • 3. A431 cells • 4. EGFR (H773insNPH) expressing Ba/F3 stable cell line • 5. HER2 (A775_G776insYVMA) expressing Ba/F3 stable cell line Assay Procedure: • 1. Seed cells at 5000 for A431 and 15,000 cells for Ba/F3 in 100 μL/well in complete media (for A431: DMEM with […] and for Ba/F3 cells: RPMI with 10% FBS) in 96-well tissue culture plate. Leave outer wells without cells for background measurements. Incubate at 37 degree Celsius in […] humidified incubator for 16-18 hours. • 2. Add 0.025 ml of 5× concentration compound dilution or DMSO control. Final compound concentration range is 10-0.0005 μM prepared in 3-fold serial dilutions. Incubate for 72 hr at 37 degree Celsius in […] humidified incubator. • 3. Add 0.0125 ml Alamar Blue™ reagent to each well with multi-channel pipette and tap gently on each side of the plate to mix. Incubate for 3 hours at 37 degree Celsius in 5% CO2 humidified incubator. • 4. […] Data analysis was performed using XLfit 5.5.0.5.

[2] = target: EGFR (A767_dupASV) expressing Ba/F3 stable cell line (Homo sapiens, UniProt P00533, DUP767-769, cells depend on it); assay: Cellular proliferation (Alamar Blue) assay, EGFR A767_dupASV Ba/F3; details: 72 hr, read-out: A767 IC50
Chain of EGFR (A767_dupASV) expressing Ba/F3 stable cell line (P00533 with tags, fused parts or gaps DUP767-769): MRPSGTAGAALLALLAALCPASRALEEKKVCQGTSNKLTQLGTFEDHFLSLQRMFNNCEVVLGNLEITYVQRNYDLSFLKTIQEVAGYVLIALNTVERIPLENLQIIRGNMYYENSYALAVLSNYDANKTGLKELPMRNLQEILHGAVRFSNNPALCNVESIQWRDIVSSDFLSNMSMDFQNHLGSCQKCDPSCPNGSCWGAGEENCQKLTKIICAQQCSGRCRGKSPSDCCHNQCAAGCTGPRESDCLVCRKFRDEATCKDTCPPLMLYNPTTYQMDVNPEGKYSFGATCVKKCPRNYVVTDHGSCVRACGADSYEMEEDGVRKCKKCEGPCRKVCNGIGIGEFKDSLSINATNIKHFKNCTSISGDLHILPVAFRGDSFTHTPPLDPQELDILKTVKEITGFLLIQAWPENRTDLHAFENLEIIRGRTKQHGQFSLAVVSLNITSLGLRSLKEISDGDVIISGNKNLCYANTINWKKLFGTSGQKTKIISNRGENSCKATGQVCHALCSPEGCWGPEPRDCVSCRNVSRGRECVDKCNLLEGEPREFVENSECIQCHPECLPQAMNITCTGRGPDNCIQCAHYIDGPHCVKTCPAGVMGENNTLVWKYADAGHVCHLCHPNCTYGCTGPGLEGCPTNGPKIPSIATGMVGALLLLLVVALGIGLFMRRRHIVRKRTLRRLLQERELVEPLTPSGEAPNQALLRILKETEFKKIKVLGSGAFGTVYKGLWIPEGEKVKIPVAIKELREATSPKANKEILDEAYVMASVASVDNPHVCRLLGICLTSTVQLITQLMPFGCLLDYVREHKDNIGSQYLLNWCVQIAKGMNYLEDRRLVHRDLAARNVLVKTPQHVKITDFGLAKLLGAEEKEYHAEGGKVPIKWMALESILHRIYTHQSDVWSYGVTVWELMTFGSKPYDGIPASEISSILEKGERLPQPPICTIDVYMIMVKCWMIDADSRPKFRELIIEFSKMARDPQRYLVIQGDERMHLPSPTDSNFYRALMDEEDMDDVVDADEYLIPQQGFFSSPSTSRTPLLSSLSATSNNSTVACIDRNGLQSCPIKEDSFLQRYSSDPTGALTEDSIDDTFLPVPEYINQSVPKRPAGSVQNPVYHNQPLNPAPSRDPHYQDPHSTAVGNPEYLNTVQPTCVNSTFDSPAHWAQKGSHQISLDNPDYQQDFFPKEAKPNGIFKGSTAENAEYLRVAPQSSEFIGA
Description: as §1

[3] = target: EGFR(D770_N771insSVD) expressing Ba/F3 stable cell line (Homo sapiens, UniProt P00533, DUP768-770, cells depend on it); assay: Cellular proliferation (Alamar Blue) assay, EGFR D770_N771insSVD Ba/F3; details: 72 hr, read-out: D770 IC50
Chain of EGFR(D770_N771insSVD) expressing Ba/F3 stable cell line (P00533 with tags, fused parts or gaps DUP768-770): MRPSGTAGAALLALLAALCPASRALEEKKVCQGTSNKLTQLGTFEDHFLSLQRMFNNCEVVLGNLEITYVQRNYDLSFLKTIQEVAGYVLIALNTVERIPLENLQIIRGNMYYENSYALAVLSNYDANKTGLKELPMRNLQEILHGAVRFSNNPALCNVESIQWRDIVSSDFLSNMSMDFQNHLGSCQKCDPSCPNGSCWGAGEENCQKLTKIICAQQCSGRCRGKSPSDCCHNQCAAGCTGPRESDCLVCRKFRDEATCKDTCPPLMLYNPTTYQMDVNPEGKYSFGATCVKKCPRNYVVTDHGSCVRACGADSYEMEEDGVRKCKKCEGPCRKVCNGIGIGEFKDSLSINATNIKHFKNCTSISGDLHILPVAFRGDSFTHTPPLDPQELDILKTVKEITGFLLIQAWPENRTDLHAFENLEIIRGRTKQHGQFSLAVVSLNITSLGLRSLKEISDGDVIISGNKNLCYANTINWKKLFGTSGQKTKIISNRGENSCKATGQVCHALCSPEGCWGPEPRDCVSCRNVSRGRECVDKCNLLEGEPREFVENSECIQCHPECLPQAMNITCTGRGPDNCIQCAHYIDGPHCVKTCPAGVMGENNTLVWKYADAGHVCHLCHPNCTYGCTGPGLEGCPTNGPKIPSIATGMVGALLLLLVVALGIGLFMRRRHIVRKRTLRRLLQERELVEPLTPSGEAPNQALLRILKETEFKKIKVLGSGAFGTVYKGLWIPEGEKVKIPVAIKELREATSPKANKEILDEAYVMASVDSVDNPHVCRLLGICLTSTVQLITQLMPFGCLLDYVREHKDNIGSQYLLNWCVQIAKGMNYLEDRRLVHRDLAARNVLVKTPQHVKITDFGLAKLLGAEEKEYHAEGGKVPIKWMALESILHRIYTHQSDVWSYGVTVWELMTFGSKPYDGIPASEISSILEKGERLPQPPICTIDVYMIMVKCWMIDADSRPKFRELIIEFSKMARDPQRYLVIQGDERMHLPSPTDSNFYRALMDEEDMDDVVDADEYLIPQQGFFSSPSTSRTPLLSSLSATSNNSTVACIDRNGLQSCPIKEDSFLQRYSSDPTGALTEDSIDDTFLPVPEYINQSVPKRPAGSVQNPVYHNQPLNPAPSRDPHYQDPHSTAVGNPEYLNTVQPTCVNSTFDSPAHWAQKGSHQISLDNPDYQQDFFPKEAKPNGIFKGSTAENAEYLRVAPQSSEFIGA
Description: as §1

[4] = Homo sapiens, A-431; A431 cells, 72 hr, Alamar Blue; read-out: A431 IC50
[5] = Homo sapiens, A-431; A431 cells, Alamar Blue, 72 hr; read-out: A431 IC50

Compound | IC50 [1, 4] [µM] | GI50 [2] [µM] | GI50 [3] [µM] | IC50 [1, 5] [µM]
C=CC(=O)Nc1cc(F)cc(Nc2nc(Nc3cnn(C)c3)ncc2-c2ccc(Br)cc2)c1 [Compound 207, N-(3-((5-(4-bromophenyl)-2-((1-methyl-1H-pyrazol-4-yl)amino)pyrimidin-4-yl)amino)-5-fluorophenyl)acrylamide] | 0.049 | 0.031 | 0.032 | 
C=CC(=O)Nc1cccc(Oc2nc(Nc3cnn(C)c3)ncc2N2CCN(C)CC2)c1 [Compound 223, N-(3-((2-((1-methyl-1H-pyrazol-4-yl)amino)-5-(4-methylpiperazin-1-yl)pyrimidin-4-yl)oxy)phenyl)acrylamide] | 3.93 | 9.7 | 9.03 | 
C=CC(=O)Nc1ccc(F)c(Nc2nc(Nc3ccccc3OC)ncc2-c2ccc(C(F)(F)F)cc2)c1 [Compound 39, N-(4-fluoro-3-((2-((2-methoxyphenyl)amino)-5-(4-(trifluoromethyl)phenyl)pyrimidin-4-yl)amino)phenyl)acrylamide trifluoroacetate] |  | 8.29 | 3.04 | 2.93
C=CC(=O)Nc1ccc(F)c(Nc2nc(N(C)c3cnn(C)c3)ncc2-c2cc(F)cc(OC)c2)c1 [Compound 305, N-(4-fluoro-3-((5-(3-fluoro-5-methoxyphenyl)-2-(methyl(1-methyl-1H-pyrazol-4-yl)amino)pyrimidin-4-yl)amino)phenyl)acrylamide] | > 10 | > 10 | > 10 | 
C=CC(=O)Nc1ccc(F)c(Nc2nc(Nc3cnn(C)c3)ncc2C2CCN(C)C2)c1 (stereo not drawn) [Compound 227, N-[4-fluoro-3-({2-[(1-methyl-1H-pyrazol-4-yl)amino]-5-(1-methylpyrrolidin-3-yl)pyrimidin-4-yl}amino)phenyl]prop-2-enamide] | 6.06 | 7.09 | > 10 | 

The remaining lines, values ahead:

IC50 [1, 4] [µM] | GI50 [2] [µM] | GI50 [3] [µM] | IC50 [1, 5] [µM] | Compound
0.716 | 0.704 | 0.239 |  | C=CC(=O)Nc1cc(Nc2nc(Nc3cnn(C)c3)ncc2-c2ccc(C(F)(F)F)cc2)ccc1N(C)CCN(C)C [Compound 199, N-(2-{[2-(dimethylamino)ethyl](methyl)amino}-5-({2-[(1-methyl-1H-pyrazol-4-yl)amino]-5-[4-(trifluoromethyl)phenyl]pyrimidin-4-yl}amino)phenyl)prop-2-enamide]
1.13 | 0.948 | 0.383 |  | C=CC(=O)Nc1cccc(Oc2nc(Nc3ccc(CN(C)C)cc3)ncc2-c2ccc(C(F)(F)F)cc2)c1 [Compound 234, N-(3-((2-((4-((dimethylamino)methyl)phenyl)amino)-5-(4-(trifluoromethyl)phenyl)pyrimidin-4-yl)oxy)phenyl)acrylamide]
 | 7.47 | 9.98 | 6.11 | C=CC(=O)Nc1cccc(Oc2cc(Nc3cnn(C)c3)ncc2-c2ccc(C(F)(F)F)cc2)c1 [Compound 182, N-[3-({2-[(1-methyl-1H-pyrazol-4-yl)amino]-5-[4-(trifluoromethyl)phenyl]pyridin-4-yl}oxy)phenyl]prop-2-enamide; trifluoroacetic acid]
 | > 10 | 1.66 | 7.33 | C=CC(=O)Nc1ccc(F)c(Nc2nc(Nc3csc(Cl)c3)ncc2-c2ccc(C(F)(F)F)cc2)c1 [Compound 41, N-(3-((2-((5-chlorothiophen-3-yl)amino)-5-(4-(trifluoromethyl)phenyl)pyrimidin-4-yl)amino)-4-fluorophenyl)acrylamide trifluoroacetate]
8.15 | > 10 | > 10 |  | C=CC(=O)Nc1ccc(F)c(Nc2nc(Nc3cnn(C)c3)ncc2N2CCOCC2)c1 [Compound 222, N-(4-fluoro-3-((2-((1-methyl-1H-pyrazol-4-yl)amino)-5-morpholinopyrimidin-4-yl)amino)phenyl)acrylamide]
